# Assay results from patent publication US20250171452A1 (Viscient Bio, Inc., priority 2022, published 2025).
# Counter-ions that a name gives are not always drawn.
# Biological target: IDO2 (Homo sapiens (Human), UniProt Q6ZQW0)
# Experiment: Cellular IDO2 assay, doxycycline and 5-methoxy-L-tryptophan medium, colorimetric
# Assay type: cell-based
# Settings: cellular level, 72 h incubation, signal at 480 nm
# Chain of IDO2 (Q6ZQW0 whole entry, species assumed): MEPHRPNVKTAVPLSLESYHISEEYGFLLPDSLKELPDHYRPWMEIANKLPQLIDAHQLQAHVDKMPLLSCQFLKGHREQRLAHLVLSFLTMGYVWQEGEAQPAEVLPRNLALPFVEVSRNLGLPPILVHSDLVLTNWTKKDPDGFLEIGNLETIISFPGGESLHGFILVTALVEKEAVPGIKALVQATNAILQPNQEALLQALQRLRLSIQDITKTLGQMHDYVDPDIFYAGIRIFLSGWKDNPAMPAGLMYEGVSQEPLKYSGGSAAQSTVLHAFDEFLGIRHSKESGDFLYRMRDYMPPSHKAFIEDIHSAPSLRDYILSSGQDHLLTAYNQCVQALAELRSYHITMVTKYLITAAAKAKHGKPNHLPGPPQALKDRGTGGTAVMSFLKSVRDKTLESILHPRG
row,IC50 [nM],SMILES
1,< 50,"CS(=O)(=O)NCc1ccc2c(=O)n3c(nc2c1)C(=O)c1cc(F)ccc1-3 [Compound 95, N-((8-fluoro-6,12-dioxo-6,12-dihydroindolo[2,1-b]quinazolin-3-yl)methyl)methanesulfonamide]"
2,< 50,"O=C(NCc1ccc2c(=O)n3c(nc2c1)C(=O)c1cc(F)ccc1-3)OCc1ccccc1 [Compound 96, benzyl ((8-fluoro-6,12-dioxo-6,12-dihydroindolo[2,1-b]quinazolin-3-yl)methyl)carbamate]"
3,< 50,"CO/N=C1/c2cc(F)ccc2-n2c1nc1cc(-n3ccnc3)ccc1c2=O [Compound 97, (Z)-8-fluoro-3-(1H-imidazol-1-yl)-6-(methoxyimino)indolo[2,1-b]quinazolin-12(6H)-one]"
4,< 50,"O=C1c2cc(F)ccc2-n2c1nc1cc(-n3ccnc3)ccc1c2=O [Compound 98, 8-fluoro-3-(1H-imidazol-1-yl)indolo[2,1-b]quinazoline-6,12-dione]"
5,< 50,CO/N=C1\c2cc(F)ccc2-n2c1nc1cc(CNS(N)(=O)=O)ccc1c2=O [Compound 99]
6,< 50,"CC(=O)NCc1ccc2c(=O)n3c(nc2c1)C(=O)c1cc(F)ccc1-3 [Compound 100, N-((8-fluoro-6,12-dioxo-6,12-dihydroindolo[2,1-b]quinazolin-3-yl)methyl)acetamide]"
7,< 50,"O=C1c2cc(F)ccc2-n2c1nc1cccc(Br)c1c2=O [Compound 103, 1-bromo-8-fluoroindolo[2,1-b]quinazoline-6,12-dione]"
8,< 50,CN(C)Cc1ccc2nc3n(c(=O)c2c1Cl)-c1ccc(C#N)cc1C3=O [Compound 104]
9,< 50,Cc1ccc2nc3n(c(=O)c2c1Cl)-c1ccc(Br)cc1C3=O [Compound 105]
10,50 to 500,CS(=O)(=O)c1ccc2c(c1)C(=O)c1nc3cc(F)cc(F)c3c(=O)n1-2 [Compound 106]
11,< 50,CN(C)Cc1ccc2nc3n(c(=O)c2c1Cl)-c1ccc(Br)cc1C3=O [Compound 107]
12,50 to 500,O=C1c2cc([N+](=O)[O-])ccc2-n2c1nc1ccc(F)c(F)c1c2=O [Compound 108]
13,50 to 500,NS(=O)(=O)c1ccc2c(c1)C(=O)c1nc3cc(F)cc(F)c3c(=O)n1-2 [Compound 109]
14,< 50,O=C1c2cc([N+](=O)[O-])ccc2-n2c1nc1ccc(F)c(Cl)c1c2=O [Compound 110]
15,50 to 500,N#Cc1ccc2c(c1)C(=O)c1nc3c(Br)ccc(F)c3c(=O)n1-2 [Compound 111]
16,< 50,O=C1c2cc(SCc3ccccc3)ccc2-n2c1nc1cc(F)cc(F)c1c2=O [Compound 112]
17,< 50,N#Cc1ccc2c(c1)C(=O)c1nc3cc(Cl)cc(Cl)c3c(=O)n1-2 [Compound 113]
18,50 to 500,N#Cc1ccc2c(c1)C(=O)c1nc3cc(F)cc(F)c3c(=O)n1-2 [Compound 114]
19,50 to 500,"O=C1c2cc(F)ccc2-n2c1nc1c(NCc3ccc(F)cc3)cccc1c2=O [Compound 115, 8-Fluoro-4-((4-fluorobenzyl)amino)indolo[2,1-b]quinazoline-6,12-dione]"
20,50 to 500,NS(=O)(=O)c1ccc2c(c1)C(=O)c1nc3c(Cl)cccc3c(=O)n1-2 [Compound 116]
21,< 50,O=C1c2cc(SCc3ccccc3)ccc2-n2c1nc1c(Cl)cccc1c2=O [Compound 117]
22,< 50,"N#Cc1ccc2c(c1)C(=O)c1nc3c(Nc4ccc(F)cc4)cccc3c(=O)n1-2 [Compound 119, 4-((4-Fluorophenyl)amino)-6,12-dioxo-6,12-dihydroindolo[2,1-b]quinazoline-8-carbonitrile]"
23,> 500,"O=C1c2cc(SCc3ccccc3)ccc2-n2c1nc1c(Nc3ccc(F)cc3)cccc1c2=O [Compound 120, 8-(Benzylthio)-4-((4-fluorophenyl)amino)indolo[2,1-b]quinazoline-6,12-dione]"
24,50 to 500,"O=C1c2cc(Br)ccc2-n2c1nc1c(Nc3ccc(F)cc3)cccc1c2=O [Compound 121, 8-bromo-4-((4-fluorophenyl)amino)indolo[2,1-b]quinazoline-6,12-dione]"
25,50 to 500,O=C1c2cc(F)ccc2-n2c1nc1c(OCc3ccc(F)cc3)cccc1c2=O [Compound 124]
26,50 to 500,O=C1c2cc(F)ccc2-n2c1nc1c(Nc3ccc(F)cc3)cccc1c2=O [Compound 125]
27,< 50,CN(C)Cc1ccc2nc3n(c(=O)c2c1)-c1ccc(S(=O)(=O)Cc2ccccc2)cc1C3=O [Compound 127]

row,IC50 [nM],SMILES
1,< 50,CN(C)Cc1ccc2nc3n(c(=O)c2c1)-c1ccc(Br)cc1C3=O [Compound 128]
2,< 50,CC1(CCC(=O)Nc2ccc3nc4n(c(=O)c3c2)-c2ccc(F)cc2C4=O)N=N1 [Compound 129]
3,> 500,CN(C)Cc1ccc2nc3n(c(=O)c2c1)-c1ccc(SCc2ccccc2)cc1C3=O [Compound 130]
4,< 50,"CO/N=C1/c2cc(C#N)ccc2-n2c1nc1ccc(CN3CCOCC3)cc1c2=O [Compound 131, (Z)-6-(methoxyimino)-2-(morpholinomethyl)-12-oxo-6,12-dihydroindolo[2,1-b]quinazoline-8-carbonitrile]"
5,< 50,CO/N=C1/c2cc(F)ccc2-n2c1nc1ccc(-n3ccnc3)cc1c2=O [Compound 132]
6,< 50,"O=C1c2cc(F)ccc2-n2c1nc1ccc(CBr)cc1c2=O [Compound 133, 2-(bromomethyl)-8-fluoroindolo[2,1-b]quinazoline-6,12-dione]"
7,50 to 500,"CO/N=C1/c2cc(F)ccc2-n2c1nc1ccc(CNc3ccccn3)cc1c2=O [Compound 134, (Z)-8-fluoro-6-(methoxyimino)-2-((pyridin-2-ylamino)methyl)indolo[2,1-b]quinazolin-12(6H)-one]"
8,< 50,"COc1cc(OC)nc(Nc2ccc3nc4n(c(=O)c3c2)-c2ccc(F)cc2C4=O)n1 [Compound 135, 2-((4,6-dimethoxypyrimidin-2-yl)amino)-8-fluoroindolo[2,1-b]quinazoline-6,12-dione]"
9,< 50,"N#Cc1ccc2c(c1)C(=O)c1nc3ccc(CN4CCOCC4)cc3c(=O)n1-2 [Compound 136, 2-(morpholinomethyl)-6,12-dioxo-6,12-dihydroindolo[2,1-b]quinazoline-8-carbonitrile]"
10,< 50,"O=C1c2cc(F)ccc2-n2c1nc1ccc(-n3ccnc3)cc1c2=O [Compound 137, 8-fluoro-2-(1H-imidazol-1-yl)indolo[2,1-b]quinazoline-6,12-dione]"
11,50 to 500,"CO/N=C1/c2cc(F)ccc2-n2c1nc1ccc(CN(C)C)cc1c2=O [Compound 138, (Z)-2-((dimethylamino)methyl)-8-fluoro-6-(methoxyimino)indolo[2,1-b]quinazolin-12(6H)-one Trifluoroacetate Salt]"
12,< 50,"NC(=O)NCc1ccc2nc3n(c(=O)c2c1)-c1ccc(F)cc1C3=O [Compound 139, 1-((8-fluoro-6,12-dioxo-6,12-dihydroindolo[2,1-b]quinazolin-2-yl)methyl)urea]"
13,< 50,"N#C/N=C(\N)NCc1ccc2nc3n(c(=O)c2c1)-c1ccc(F)cc1C3=O [Compound 140, 2-cyano-1-((8-fluoro-6,12-dioxo-6,12-dihydroindolo[2,1-b]quinazolin-2-yl)methyl)guanidine]"
14,50 to 500,"O=C1c2cc(F)ccc2-n2c1nc1ccc(CNc3ccccn3)cc1c2=O [Compound 141, 8-fluoro-2-((pyridin-2-ylamino)methyl)indolo[2,1-b]quinazoline-6,12-dione]"
15,< 50,"CC(=O)NCc1ccc2nc3n(c(=O)c2c1)-c1ccc(F)cc1C3=O [Compound 142, N-((8-fluoro-6,12-dioxo-6,12-dihydroindolo[2,1-b]quinazolin-2-yl)methyl)acetamide]"
16,< 50,NS(=O)(=O)NCc1ccc2nc3n(c(=O)c2c1)-c1ccc(F)cc1C3=O [Compound 143]
17,< 50,"NCc1ccc2nc3n(c(=O)c2c1)-c1ccc(F)cc1C3=O [Compound 144, 2-(aminomethyl)-8-fluoroindolo[2,1-b]quinazoline-6,12-dione hydrochloride Salt]"
18,< 50,"CS(=O)(=O)NCc1ccc2nc3n(c(=O)c2c1)-c1ccc(F)cc1C3=O [Compound 145, N-((8-fluoro-6,12-dioxo-6,12-dihydroindolo[2,1-b]quinazolin-2-yl)methyl)methanesulfonamide]"
19,< 50,CO/N=C1/c2cc(F)ccc2-n2c1nc1ccc(-c3c[nH]cn3)cc1c2=O [Compound 146]
20,50 to 500,"N=C(N)NCc1ccc2nc3n(c(=O)c2c1)-c1ccc(F)cc1C3=O [Compound 147, 1-((8-fluoro-6,12-dioxo-6,12-dihydroindolo[2,1-b]quinazolin-2-yl)methyl)guanidine]"
21,< 50,"N=C(N)c1ccc2nc3n(c(=O)c2c1)-c1ccc(F)cc1C3=O [Compound 148, 8-fluoro-6,12-dioxo-6,12-dihydroindolo[2,1-b]quinazoline-2-carboximidamide]"
22,< 50,"NC(=O)c1ccc2nc3n(c(=O)c2c1)-c1ccc(F)cc1C3=O [Compound 149, 8-fluoro-6,12-dioxo-6,12-dihydroindolo[2,1-b]quinazoline-2-carboxamide]"
23,< 50,"COC(=O)c1ccc2nc3n(c(=O)c2c1)-c1ccc(F)cc1C3=O [Compound 150, methyl 8-fluoro-6,12-dioxo-6,12-dihydroindolo[2,1-b]quinazoline-2-carboxylate]"
24,< 50,"O=C1c2cc(F)ccc2-n2c1nc1ccc(-c3c[nH]cn3)cc1c2=O [Compound 151, 8-fluoro-2-(1H-imidazol-4-yl)indolo[2,1-b]quinazoline-6,12-dione]"
25,> 500,"CC1(O)c2cc(F)ccc2-n2c1nc1ccc(C#N)cc1c2=O (stereo not shown) [Compound 152, 8-fluoro-6-hydroxy-6-methyl-12-oxo-6,12-dihydroindolo[2,1-b]quinazoline-2-carbonitrile]"
26,> 500,"O=C(O)c1ccc2nc3n(c(=O)c2c1)-c1ccc(F)cc1C3=O [Compound 153, 8-fluoro-6,12-dioxo-6,12-dihydroindolo[2,1-b]quinazoline-2-carboxylic Acid]"

row,SMILES,IC50 [nM]
1,"NCc1cccc2nc3n(c(=O)c12)-c1ccc(F)cc1C3=O [Compound 101, 1-(aminomethyl)-8-fluoroindolo[2,1-b]quinazoline-6,12-dione]",50 to 500
2,NCc1cccc2nc3n(c(=O)c12)-c1ccc(F)cc1C3=O [Compound 102],< 50
